According to PubChem BioAssay (NCI):
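96-well plates; 48 h exposure; 5 concentrations. Endpoints by linear interpolation between flanking doses. Not reached: highest tested concentration assigned. GI50 marks 50% less growth. TGI: total growth inhibition.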

How the values were obtained:
Assay in all cases: DTP human tumour cell line panel, 48 h
MALME-3M melanoma = tested on: MALME-3M melanoma
SK-MEL-2 melanoma = tested on: SK-MEL-2 melanoma
MDA-MB-435 = tested on: MDA-MB-435
UACC-257 melanoma = tested on: UACC-257 melanoma
MOLT-4 leukemia = tested on: MOLT-4 leukemia
HCT-116 colon = tested on: HCT-116 colon
NCI-H522 lung = tested on: NCI-H522 lung
NCI-H23 lung = tested on: NCI-H23 lung
HCT-15 colon = tested on: HCT-15 colon
NCI-H460 lung = tested on: NCI-H460 lung
NCI-H226 lung = tested on: NCI-H226 lung
OVCAR-4 ovarian = tested on: OVCAR-4 ovarian
T-47D breast = tested on: T-47D breast
CCRF-CEM leukemia = tested on: CCRF-CEM leukemia
HS 578T breast = tested on: HS 578T breast
OVCAR-3 ovarian = tested on: OVCAR-3 ovarian
A549 NSCLC = tested on: A549 NSCLC
UACC-62 melanoma = tested on: UACC-62 melanoma
A498 renal = tested on: A498 renal
786-0 renal = tested on: 786-0 renal
SN12C renal = tested on: SN12C renal
OVCAR-5 ovarian = tested on: OVCAR-5 ovarian
SNB-19 CNS = tested on: SNB-19 CNS
CAKI-1 renal = tested on: CAKI-1 renal
HL-60(TB) leukemia = tested on: HL-60(TB) leukemia
OVCAR-8 ovarian = tested on: OVCAR-8 ovarian
IGROV1 ovarian = tested on: IGROV1 ovarian
K-562 leukemia = tested on: K-562 leukemia
PC-3 prostate = tested on: PC-3 prostate

## N#CCn1c(=O)c(Oc2ccc(F)cc2F)cc2cnc(NC3CCOCC3)nc21
MALME-3M melanoma
  TGI: > 25 µM
SK-MEL-2 melanoma
  GI50: > 25 µM
  TGI: > 25 µM
MDA-MB-435
  GI50: > 25 µM
  TGI: > 25 µM
UACC-257 melanoma
  GI50: > 25 µM
  TGI: > 25 µM
MOLT-4 leukemia
  GI50: > 25 µM
  TGI: > 25 µM
HCT-116 colon
  GI50: > 25 µM
  TGI: > 25 µM
NCI-H522 lung
  GI50: 15 µM
  TGI: > 25 µM
NCI-H23 lung
  GI50: > 25 µM
  TGI: > 25 µM
HCT-15 colon
  GI50: > 25 µM
  TGI: > 25 µM
NCI-H460 lung
  GI50: > 25 µM
  TGI: > 25 µM
NCI-H226 lung
  GI50: > 25 µM
  TGI: > 25 µM
OVCAR-4 ovarian
  GI50: > 24 µM
  TGI: > 25 µM
T-47D breast
  GI50: 12.3 µM
  TGI: > 25 µM
CCRF-CEM leukemia
  GI50: > 25 µM
  TGI: > 25 µM
HS 578T breast
  GI50: > 25 µM
  TGI: > 25 µM
OVCAR-3 ovarian
  GI50: > 25 µM
  TGI: > 25 µM
A549 NSCLC
  GI50: > 25 µM
  TGI: > 25 µM
UACC-62 melanoma
  GI50: > 25 µM
  TGI: > 25 µM
A498 renal
  GI50: 24.7 µM
  TGI: > 25 µM
786-0 renal
  GI50: > 25 µM
  TGI: > 25 µM
SN12C renal
  GI50: > 25 µM
  TGI: > 25 µM
OVCAR-5 ovarian
  GI50: > 25 µM
  TGI: > 25 µM
SNB-19 CNS
  GI50: > 25 µM
  TGI: > 25 µM
CAKI-1 renal
  GI50: > 25 µM
  TGI: > 25 µM
HL-60(TB) leukemia
  GI50: > 25 µM
  TGI: > 25 µM
OVCAR-8 ovarian
  GI50: > 25 µM
  TGI: > 25 µM
IGROV1 ovarian
  GI50: > 25 µM
  TGI: > 25 µM
K-562 leukemia
  GI50: > 25 µM
  TGI: > 25 µM
PC-3 prostate
  GI50: > 25 µM
  TGI: > 25 µM
